Laboratory results: patent publication US10117819B2, “Composition for hair frizz reduction” (The Procter & Gamble Company, priority 2014, dated 2018)

Assay: Penetration amount of moisture control material inside hair (extraction, HPLC)
Conditions: compared to corresponding composition without 2-hydroxyethyl urea (XXVII and XXVIII)
Procedure: Each hair tress is extracted 3 times with 0.1% TFA (Trifluoroacetic acid) in methanol and the individual extracts are analyzed separately using HPLC method.

O=C(O)c1ccccc1O [Salicylic acid]
Increase of penetration inside hair with 2% of 2-hydroxyethyl urea: 14%
